The structures appear in SMILES notation.

Turning to `CCSc1ccc(CNC)c(Oc2ccc(Cl)cc2)c1` [Example 60, [2-(4-Chlorophenoxy)-4-ethylsulfanylbenzyl]methylamine], the melting point (in general, the temperature, or range, at which the solid turns liquid) was in the range of 158 to 160 °C.

`CNCc1ccc(Cl)cc1Oc1ccc(F)c2c1CCC2` [Example 57, [4-Chloro-2-(7-fluoroindan-4-yloxy)benzyl]methylamine] yielded a melting point of 204 to 206 °C.

For the compound `CNCc1ccc(C)cc1Oc1ccc(Cl)cc1F` [Example 47, [2-(4-Chloro-2-fluorophenoxy)-4-methylbenzyl]methylamine], the melting point fell in the range of 198 to 220 °C.

`CNCc1cc(C)c([S+](C)[O-])cc1Oc1ccc(Cl)c(C)c1C` (centres unmarked) [Example 19, [2-(4-Chloro-2,3-dimethylphenoxy)-4-methanesulfinyl-5-methylbenzyl]methylamine] returned a melting point of 220 to 222 °C.

`CNCc1cc(C)c(C)cc1Oc1ccc(Cl)cc1F` [Example 45, [2-(4-Chloro-2-fluorophenoxy)-4,5-dimethylbenzyl]methylamine] yielded a melting point of 134 to 136 °C.

`CNCc1cc(F)c(S(C)(=O)=O)cc1Oc1ccc(Cl)cc1F` [Example 52, [2-(4-Chloro-2-fluorophenoxy)-5-fluoro-4-methanesulfonylbenzyl]methylamine]: the melting point lay in the range of 184 to 186 °C.

For the compound `CNCc1ccc(OC)cc1Oc1ccc(Cl)cc1F` [Example 46, [2-(4-Chloro-2-fluorophenoxy)-4-methoxy-benzyl]methylamine], the melting point is 186 to 188 °C.

`CNCc1ccc(S(C)(=O)=O)cc1Oc1ccc2c(c1)CCC2` [Example 58, [2-(Indan-5-yloxy)-4-methanesulfonylbenzyl]methylamine] returned a melting point of 88 to 90 °C.

Consider `CNC(C)c1cc(F)c(Cl)cc1Oc1ccc(Cl)cc1F` (centres unmarked) [Example 41, {1-[4-Chloro-2-(4-chloro-2-fluorophenoxy)-5-fluorophenyl]ethyl}-methylamine], for which the melting point lay in the range of 178 to 180 °C.

The compound `CNCc1ccc(Br)cc1Oc1ccc(Cl)cc1F` [Example 50, [4-Bromo-2-(4-chloro-2-fluorophenoxy)benzyl]methylamine] gave a melting point of 204 to 206 °C.

On to `CNCc1cc(C)c(Cl)cc1Oc1ccc(Cl)cc1F` [Example 43, [4-Chloro-2-(4-chloro-2-fluorophenoxy)-5-methylbenzyl]methylamine], for which the melting point lay within 212 to 214 °C.

The values above are taken from patent US20060058361A1, “Therapeutic diphenyl ether ligands” (Pfizer Inc, priority 2004, published 2006).
